Measured values as given in US12643871B2, “Aryl formamide compound containing chiral sulfur oxide or salt thereof, preparation method, herbicidal composition and use thereof” (Qingdao Kingagroot Chemical Compound Co., Ltd., priority 2019, dated 2026).

Tests used:
Amaranthus retroflexus = assay: Weeding effect in post-emergence stage; format: in vivo; details: 250 g/ha; 2 leaf stage; 15 days after application; fresh weight control rate
Excerpt: (§1) The activity level criteria for harmful plant damage (i.e., growth control rate) are as follows: • Level 5: growth control rate is above 85%; • Level 4: growth control rate is greater than or equal to 60% and less than 85%; • Level 3: growth control rate is greater than or equal to 40% and less than 60%; • Level 2: growth control rate is greater than or equal to 20% and less than 40%; • Level 1: growth control rate is greater than or equal to 5% and less than 20%; • Level 0: growth control rate is less than 5%.
(§2) The above growth control rates are fresh weight control rates.
(§3) Experiment on weeding effect in post-emergence stage: monocotyledonous and dicotyledonous weed seeds (Descurainia sophia, Capsella bursa-pastoris, Galium aparine, Stellaria media, Lithospermum arvense, Rorippa indica, Alopecurus aequalis, Beckmannia syzigachne, Sclerochloa dura, Phleum paniculatum, Bromus japonicus, Aegilops tauschii, Phalaris arundinacea, Amaranthus retroflexus, Chenopodiaceae, Commelina communis, Sonchus arvensis, convolvulus arvensis, Cirsium setosum, Solanum nigrum, Acalypha australis, Digitaria sanguinalis, Echinochloa crusgalli, Setaria viridis, Setaria glauca, Leptochloa chinensis, Monochoria vaginalis, Sagittaria trifolia, Scirpus juncoides, Cyperus rotundus, Cyperus iria, Cyperus difformis, Fimbristylis, Portulaca oleracea, Xanthium sibiricum, Pharbitis nil) and major crop seeds (wheat, corn, rice, soybean, cotton, oilseed rape, millet, sorghum, potato, sesame, ricinus) were placed in plastic pots filled with soil, then covered with 0.5-2 cm of soil, allowed to grow in a good greenhouse environment. After 2 weeks of sowing, the test plants were treated in the 2 leaf stage. The tested compounds of the present invention were respectively dissolved in acetone, then added with Tween 80 and 1.5 liter/ha of emulsifiable concentrate of methyl oleate as synergist, diluted with a certain amount of water to obtain a solution with a certain concentration, and sprayed with a spray tower onto the plants. After the application, the plants were cultured for 15 days in the greenhouse, and then the experimental results of the weeding were counted. The doses of the used compounds were 500, 250, 125, 60, 30, 15 g/ha, and the averages were obtained by repeating for three times.

Echinochloa crusgali = assay: Weeding effect in post-emergence stage; format: in vivo; details: 250 g/ha; 2 leaf stage; 15 days after application; fresh weight control rate
Excerpt: as §1, §2, §3

| SMILES | weeding effect in post-emergence stage, activity level (growth control rate), Amaranthus retroflexus (Amaranthus retroflexus) | weeding effect in post-emergence stage, activity level (growth control rate), Echinochloa crusgali (Echinochloa crusgali) |
| --- | --- | --- |
| Cc1nnc(NC(=O)c2ccc(S(C)(=O)=O)c([S@+]([O-])CC(F)(F)F)c2C)o1 [Compound 500] | 5 (Level 5: growth control rate is above 85%) | 5 (Level 5: growth control rate is above 85%) |
| Cc1nnc(NC(=O)c2ccc(C(F)(F)F)c([S@+]([O-])CC(=O)N(C)C)c2F)o1 [Compound 178] | 5 (Level 5: growth control rate is above 85%) | 5 (Level 5: growth control rate is above 85%) |
| Cc1c(C(=O)Nc2nnnn2C)ccc(S(C)(=O)=O)c1[S@@+](C)[O-] [Compound 511] | 5 (Level 5: growth control rate is above 85%) | 5 (Level 5: growth control rate is above 85%) |
| CC[S@@+]([O-])c1c(C(F)(F)F)ccc(C(=O)N(C(C)=O)c2nnc(C)o2)c1F [Compound 216] | 5 (Level 5: growth control rate is above 85%) | 5 (Level 5: growth control rate is above 85%) |
| Cc1c(C(=O)Nc2nnnn2C)ccc(S(C)(=O)=O)c1[S@+]([O-])C(C)C [Compound 513] | 5 (Level 5: growth control rate is above 85%) | 5 (Level 5: growth control rate is above 85%) |
| COc1c(C(=O)Nc2nnc(C)o2)ccc(C(F)(F)F)c1[S@+]([O-])CC(C)=O [Compound 351] | 5 (Level 5: growth control rate is above 85%) | 5 (Level 5: growth control rate is above 85%) |
| Cc1ccc(C(=O)Nc2nnnn2C)c(C)c1[S@+]([O-])C(C)C [Compound 476] | 5 (Level 5: growth control rate is above 85%) | 5 (Level 5: growth control rate is above 85%) |
| COC(=O)C[S@@+]([O-])c1c(C(F)(F)F)ccc(C(=O)Nc2nnc(C)o2)c1F [Compound 196] | 5 (Level 5: growth control rate is above 85%) | 5 (Level 5: growth control rate is above 85%) |
| C=CC[S@@+]([O-])c1c(S(C)(=O)=O)ccc(C(=O)Nc2nnc(C)o2)c1C [Compound 496] | 5 (Level 5: growth control rate is above 85%) | 5 (Level 5: growth control rate is above 85%) |
| CCC[S@@+]([O-])c1c(C)ccc(C(=O)Nc2nnc(C)o2)c1C [Compound 482] | 5 (Level 5: growth control rate is above 85%) | 5 (Level 5: growth control rate is above 85%) |
| Cc1nnc(NC(=O)c2ccc(C)c([S@+]([O-])CC(C)C)c2C)o1 [Compound 484] | 5 (Level 5: growth control rate is above 85%) | 5 (Level 5: growth control rate is above 85%) |
| Cc1ccc(C(=O)Nc2nnnn2C)c(C)c1[S@+]([O-])CC(F)(F)F [Compound 478] | 5 (Level 5: growth control rate is above 85%) | 5 (Level 5: growth control rate is above 85%) |
| Cc1nnc(NC(=O)c2ccc(S(C)(=O)=O)c([S@+]([O-])CC3CC3)c2C)o1 [Compound 498] | 5 (Level 5: growth control rate is above 85%) | 5 (Level 5: growth control rate is above 85%) |
| Cc1nnc(NC(=O)c2ccc(S(C)(=O)=O)c([S@+]([O-])C(C)C)c2C)o1 [Compound 493] | 5 (Level 5: growth control rate is above 85%) | 5 (Level 5: growth control rate is above 85%) |
| C#CC[S@@+]([O-])c1c(S(C)(=O)=O)ccc(C(=O)Nc2nnc(C)o2)c1C [Compound 497] | 5 (Level 5: growth control rate is above 85%) | 5 (Level 5: growth control rate is above 85%) |
| COc1c(C(=O)Nc2nnc(C)o2)ccc(C(F)(F)F)c1[S@+]([O-])CCO[Si](C)(C)C(C)(C)C [Compound 349] | 5 (Level 5: growth control rate is above 85%) | 5 (Level 5: growth control rate is above 85%) |
| Cc1nnc(NC(=O)c2ccc(C(F)(F)F)c([S@+]([O-])CCC3CCCCC3)c2F)o1 [Compound 18] | 5 (Level 5: growth control rate is above 85%) | 5 (Level 5: growth control rate is above 85%) |
| Cc1nnc(NC(=O)c2ccc(S(C)(=O)=O)c([S@@+](C)[O-])c2C)o1 [Compound 491] | 5 (Level 5: growth control rate is above 85%) | 5 (Level 5: growth control rate is above 85%) |
| Cc1nnc(NC(=O)c2ccc(C(F)(F)F)c([S+]([O-])C#N)c2F)o1 (stereo not shown) [Compound 51] | 5 (Level 5: growth control rate is above 85%) | 5 (Level 5: growth control rate is above 85%) |
| Cc1nnc(NC(=O)c2ccc(C(F)(F)F)c([S+]([O-])[Si](C)(C)C)c2F)o1 (stereo not shown) [Compound 206] | 5 (Level 5: growth control rate is above 85%) | 5 (Level 5: growth control rate is above 85%) |
| CCCn1nnnc1NC(=O)c1ccc(C(F)(F)F)c([S@+]([O-])CCC)c1F [Compound 383] | 5 (Level 5: growth control rate is above 85%) | 5 (Level 5: growth control rate is above 85%) |
| C#CC[S@@+]([O-])c1c(S(C)(=O)=O)ccc(C(=O)Nc2nnnn2C)c1C [Compound 517] | 5 (Level 5: growth control rate is above 85%) | 5 (Level 5: growth control rate is above 85%) |
| Cc1nnc(NC(=O)c2ccc(C(F)(F)F)c([S@+]([O-])CCC=O)c2F)o1 [Compound 192] | 5 (Level 5: growth control rate is above 85%) | 5 (Level 5: growth control rate is above 85%) |
| Cc1nnc(NC(=O)c2ccc(C(F)(F)F)c([S@@+]([O-])C(=O)N(C)C)c2F)o1 [Compound 176] | 5 (Level 5: growth control rate is above 85%) | 5 (Level 5: growth control rate is above 85%) |
| Cc1nnc(NC(=O)c2ccc(C(C)C)c([S@@+](C)[O-])c2C)o1 [Compound 486] | 5 (Level 5: growth control rate is above 85%) | 5 (Level 5: growth control rate is above 85%) |
| Cc1nnc(NC(=O)c2ccc(C(F)(F)F)c([S@@+]([O-])C(=O)c3ccco3)c2F)o1 [Compound 171] | 5 (Level 5: growth control rate is above 85%) | 5 (Level 5: growth control rate is above 85%) |
| CCC[S@@+]([O-])c1c(S(C)(=O)=O)ccc(C(=O)Nc2nnc(C)o2)c1C [Compound 492] | 5 (Level 5: growth control rate is above 85%) | 5 (Level 5: growth control rate is above 85%) |
| C#CCN(C(=O)c1ccc(C(F)(F)F)c([S@+]([O-])CC)c1F)c1nnc(C)o1 [Compound 214] | 5 (Level 5: growth control rate is above 85%) | 5 (Level 5: growth control rate is above 85%) |
| Cc1nnc(NC(=O)c2ccc(C)c([S@+]([O-])CC(F)(F)F)c2C)o1 [Compound 485] | 5 (Level 5: growth control rate is above 85%) | 5 (Level 5: growth control rate is above 85%) |
